Data as given in US6040291A, “Antimicrobial peptide” (Seikagaku Corporation, priority 1998, dated 2000).

System: E. coli O157:H7
Experiment: Antimicrobial activity on E. coli O157:H7 (CFU count, IC50)
Type: cell-based
Conditions: Table 6
Experimental: Measurement method for antimicrobial activity: For the measurement of antimicrobial activity, E. coli [E. coli O157:H7 (collected from an E. coli O157 patients in Okayama prefecture, Kanagawa prefecture and Morioka city of Iwate Prefecture)], Klebsiella or Methicillin resistant Staphylococcus aureus; MRSA] was used.
These bacteria were grown in a liquid medium (Tryptosoy broth; manufactured by Eiken Kagaku). The bacteria cells in a logarithmic growth phase were collected, washed with PBS (pH 7.2), and adjusted to a final concentration of 5 ×10^3 to 1×10^4 cells/ml. To 450 μl of cell suspension, 50 μl of samples (peptide) in various concentrations were each added and mixtures were incubated at 37° C. for 1 hour. After the incubation, 100 μl of each reaction mixture was spread on an agarose medium (Nutrient agar; manufactured by Eiken Kagaku). This was incubated at 37° C. for 24 hours and the colony-forming unit (CFU) was counted to obtain 50% inhibition concentration (IC50).
Polymyxin B (known antimicrobial agent), A1, the peptide of the present invention (b), A3, the peptide of the present invention (d), A5 and A6 were used as samples and their antimicrobial activities on E. coli [E. coli O157:H7 (collected from E. coli O157 patients in Okayama prefecture, Kanagawa prefecture and Morioka city of Iwate Prefecture)] were examined by the above-described measurement method. […]

Substance: Polymyxin B
- Antimicrobial Activity on E. Coli O157:H7 (IC50) (isolate Kanagawa): < 2.5 µg/mL
- Antimicrobial Activity on E. Coli O157:H7 (IC50) (isolate Okayama): 0.2 µg/mL
